In one assay the target is T1, Nitric oxide synthase 3 (Homo sapiens, UniProt P29474).
T1 sequence (P29474 whole entry): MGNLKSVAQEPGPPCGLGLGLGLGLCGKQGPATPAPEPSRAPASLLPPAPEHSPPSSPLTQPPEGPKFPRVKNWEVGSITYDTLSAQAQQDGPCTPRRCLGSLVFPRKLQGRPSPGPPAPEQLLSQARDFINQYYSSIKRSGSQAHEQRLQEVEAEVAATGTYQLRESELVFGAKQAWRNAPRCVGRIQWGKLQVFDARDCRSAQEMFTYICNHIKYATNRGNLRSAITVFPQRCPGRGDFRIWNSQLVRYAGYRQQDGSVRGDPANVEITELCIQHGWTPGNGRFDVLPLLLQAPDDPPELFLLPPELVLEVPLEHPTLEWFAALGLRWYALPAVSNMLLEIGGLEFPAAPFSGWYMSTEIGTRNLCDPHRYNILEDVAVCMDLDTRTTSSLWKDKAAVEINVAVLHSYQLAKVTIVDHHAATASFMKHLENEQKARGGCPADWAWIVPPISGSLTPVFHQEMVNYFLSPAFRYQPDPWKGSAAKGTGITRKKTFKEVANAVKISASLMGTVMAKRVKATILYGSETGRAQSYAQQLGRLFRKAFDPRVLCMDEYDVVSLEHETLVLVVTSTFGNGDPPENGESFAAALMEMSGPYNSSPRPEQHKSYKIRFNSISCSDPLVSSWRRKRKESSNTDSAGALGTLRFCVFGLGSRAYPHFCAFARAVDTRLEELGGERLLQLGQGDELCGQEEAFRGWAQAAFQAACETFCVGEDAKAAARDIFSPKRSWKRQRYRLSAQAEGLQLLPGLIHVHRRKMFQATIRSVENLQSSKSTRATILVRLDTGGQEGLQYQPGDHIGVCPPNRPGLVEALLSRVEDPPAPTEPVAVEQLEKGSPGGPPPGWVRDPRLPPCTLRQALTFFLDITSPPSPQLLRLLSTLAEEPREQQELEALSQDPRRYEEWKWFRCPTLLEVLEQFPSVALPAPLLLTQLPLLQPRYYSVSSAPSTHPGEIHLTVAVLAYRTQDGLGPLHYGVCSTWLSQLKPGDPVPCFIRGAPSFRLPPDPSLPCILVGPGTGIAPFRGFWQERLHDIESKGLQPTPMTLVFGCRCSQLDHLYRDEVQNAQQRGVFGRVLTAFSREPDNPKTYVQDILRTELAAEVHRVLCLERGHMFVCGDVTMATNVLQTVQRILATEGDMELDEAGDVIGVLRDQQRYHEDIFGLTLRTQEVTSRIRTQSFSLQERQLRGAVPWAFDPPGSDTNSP
Nature of the assay: Inhibitory concentration against recombinant human Endothelial nitric oxide synthase.

The target of the next assay is Nitric oxide synthase 1 (Homo sapiens, UniProt P29475). Nature of the assay: Inhibitory concentration against recombinant human (neuronal nitric oxide synthase) n-NOS.
Assay [1] addresses Nitric oxide synthase, inducible (Homo sapiens, UniProt P35228). The assay is described as follows: Inhibitory concentration against human Inducible nitric oxide synthase.

pIC50: −log10 of the molar value.

Nitric oxide synthase 1, sequence (P29475 whole entry): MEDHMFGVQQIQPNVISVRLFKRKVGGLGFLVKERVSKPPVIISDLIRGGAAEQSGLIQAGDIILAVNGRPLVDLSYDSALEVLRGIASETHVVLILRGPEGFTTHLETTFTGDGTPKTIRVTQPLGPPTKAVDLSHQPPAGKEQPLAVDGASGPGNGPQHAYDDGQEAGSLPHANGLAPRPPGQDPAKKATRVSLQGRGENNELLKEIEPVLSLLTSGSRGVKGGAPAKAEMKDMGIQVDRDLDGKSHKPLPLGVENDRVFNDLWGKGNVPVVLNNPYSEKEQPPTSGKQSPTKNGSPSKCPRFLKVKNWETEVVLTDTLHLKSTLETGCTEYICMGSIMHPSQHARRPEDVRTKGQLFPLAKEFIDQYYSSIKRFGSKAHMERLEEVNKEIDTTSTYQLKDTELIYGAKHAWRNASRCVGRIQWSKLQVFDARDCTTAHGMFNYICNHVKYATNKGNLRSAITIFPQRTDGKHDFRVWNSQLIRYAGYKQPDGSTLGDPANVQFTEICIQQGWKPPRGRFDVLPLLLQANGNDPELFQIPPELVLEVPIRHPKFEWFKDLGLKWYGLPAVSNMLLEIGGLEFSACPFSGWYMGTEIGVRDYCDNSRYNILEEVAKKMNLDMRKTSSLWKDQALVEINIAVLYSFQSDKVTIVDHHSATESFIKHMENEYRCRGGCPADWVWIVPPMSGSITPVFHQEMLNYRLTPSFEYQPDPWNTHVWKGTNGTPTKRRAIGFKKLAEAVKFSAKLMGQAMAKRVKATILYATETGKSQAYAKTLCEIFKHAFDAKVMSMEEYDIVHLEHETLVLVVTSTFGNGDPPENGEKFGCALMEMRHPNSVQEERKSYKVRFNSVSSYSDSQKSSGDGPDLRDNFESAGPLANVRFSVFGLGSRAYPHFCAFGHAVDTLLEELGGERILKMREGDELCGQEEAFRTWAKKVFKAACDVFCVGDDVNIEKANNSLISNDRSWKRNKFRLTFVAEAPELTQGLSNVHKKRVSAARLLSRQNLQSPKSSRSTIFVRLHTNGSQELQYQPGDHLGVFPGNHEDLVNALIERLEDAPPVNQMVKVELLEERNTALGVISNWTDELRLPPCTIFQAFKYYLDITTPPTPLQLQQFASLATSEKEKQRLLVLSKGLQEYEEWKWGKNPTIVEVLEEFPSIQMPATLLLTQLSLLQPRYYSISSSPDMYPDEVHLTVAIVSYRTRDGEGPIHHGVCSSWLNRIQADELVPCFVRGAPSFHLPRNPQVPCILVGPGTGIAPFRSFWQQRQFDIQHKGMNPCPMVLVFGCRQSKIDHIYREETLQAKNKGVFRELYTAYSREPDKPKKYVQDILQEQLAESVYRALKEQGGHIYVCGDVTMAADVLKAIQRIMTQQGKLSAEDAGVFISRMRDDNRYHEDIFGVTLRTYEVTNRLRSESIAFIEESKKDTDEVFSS
Nitric oxide synthase, inducible, sequence (P35228 whole entry): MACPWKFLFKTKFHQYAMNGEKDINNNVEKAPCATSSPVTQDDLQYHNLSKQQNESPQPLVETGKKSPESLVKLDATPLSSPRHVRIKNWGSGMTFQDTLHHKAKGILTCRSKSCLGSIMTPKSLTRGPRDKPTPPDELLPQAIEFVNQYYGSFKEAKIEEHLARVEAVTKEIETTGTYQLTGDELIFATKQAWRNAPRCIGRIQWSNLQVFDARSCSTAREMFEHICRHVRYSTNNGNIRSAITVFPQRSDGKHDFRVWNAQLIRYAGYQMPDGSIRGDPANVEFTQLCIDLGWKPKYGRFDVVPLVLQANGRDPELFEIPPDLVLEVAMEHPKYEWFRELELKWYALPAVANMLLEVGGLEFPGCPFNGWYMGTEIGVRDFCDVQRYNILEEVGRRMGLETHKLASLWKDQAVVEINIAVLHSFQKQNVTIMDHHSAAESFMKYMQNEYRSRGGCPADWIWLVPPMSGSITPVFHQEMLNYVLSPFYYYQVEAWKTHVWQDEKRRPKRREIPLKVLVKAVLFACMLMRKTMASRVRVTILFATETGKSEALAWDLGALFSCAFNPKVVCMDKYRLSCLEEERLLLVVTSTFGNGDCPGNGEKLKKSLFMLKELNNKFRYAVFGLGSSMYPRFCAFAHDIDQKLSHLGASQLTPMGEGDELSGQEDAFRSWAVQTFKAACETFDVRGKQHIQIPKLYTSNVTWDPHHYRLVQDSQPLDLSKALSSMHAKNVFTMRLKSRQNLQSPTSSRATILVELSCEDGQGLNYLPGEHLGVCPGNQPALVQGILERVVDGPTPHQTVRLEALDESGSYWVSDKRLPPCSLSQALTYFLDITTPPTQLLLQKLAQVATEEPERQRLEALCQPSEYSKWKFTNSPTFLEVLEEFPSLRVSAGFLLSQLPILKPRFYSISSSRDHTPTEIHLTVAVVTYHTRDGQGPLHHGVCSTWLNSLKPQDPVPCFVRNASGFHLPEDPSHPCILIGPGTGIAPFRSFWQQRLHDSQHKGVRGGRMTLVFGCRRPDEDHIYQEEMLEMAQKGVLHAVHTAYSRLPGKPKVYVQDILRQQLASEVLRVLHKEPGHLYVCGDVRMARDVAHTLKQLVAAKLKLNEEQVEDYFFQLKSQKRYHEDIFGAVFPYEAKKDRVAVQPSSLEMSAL

In general, pIC50 refers to the negative decadic logarithm of the IC50, by convention in mol/L. For the compound `N=C(Nc1ccc(CCNCc2cccc(Cl)c2)cc1)c1cccs1`, the pIC50 on Nitric oxide synthase 3 was 5.46; at Nitric oxide synthase 1, 7.46.
Take `CNCCOc1ccc2c(c1)N=C(N)[C@@H]1CCC[C@H]21`: the figures for the pIC50 (on Nitric oxide synthase 3; in assay [1]; at Nitric oxide synthase 1) were 4.28, 5.41 and 6.77, respectively.
With `NC1=Nc2cc(CCNCc3cccc(Cl)c3)ccc2[C@H]2CCC[C@@H]12`, the negative logarithm of the IC50 (pIC50) is 5.17 at Nitric oxide synthase 3, 6.28 in assay [1] and 7.32 on Nitric oxide synthase 1.
As for `NC1=Nc2cc(CNCc3cccc(Cl)c3)ccc2[C@H]2CCC[C@@H]12`, the negative-log IC50 (pIC50) on Nitric oxide synthase 3 was 5.02; in assay [1] it was 6.02; at Nitric oxide synthase 1, 6.85.
For `NC1=Nc2cc(CCCNCc3cccc(Cl)c3)ccc2[C@H]2CCC[C@@H]12`, in that order: 5.03, 6.24 and 7.38.
For `NC1=Nc2cc(CCNCc3cccc(Cl)c3)c(Cl)cc2[C@H]2CCC[C@@H]12`, in that order: 5.06, 5.80 and 6.77.

The values are drawn from ChEMBL document CHEMBL1136534, “Dihydroquinolines with amine-containing side chains as potent n-NOS inhibitors” (Bioorg Med Chem Lett, 2003).
